The record followed here is patent publication US10703765B2 (priority 2014, dated 2020).

Structures can show the parent of a compound that is named as a salt.

The target in one test is human σ1 receptor (Homo sapiens, UniProt Q99720). As to the kind of experiment: biochemical. The format is binding. Also on record: μ and σ1 dual binding: key to the marks not given beside the values.
human σ1 receptor, sequence (Q99720 whole entry): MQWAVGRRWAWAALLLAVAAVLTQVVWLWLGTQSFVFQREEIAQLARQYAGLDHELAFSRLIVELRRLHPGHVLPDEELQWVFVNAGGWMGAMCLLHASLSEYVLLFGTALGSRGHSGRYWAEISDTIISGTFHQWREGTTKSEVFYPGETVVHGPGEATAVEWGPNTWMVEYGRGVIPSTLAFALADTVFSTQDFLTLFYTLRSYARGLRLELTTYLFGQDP
Details: not given
Regarding `CC1OC2(CCN(CCc3ccncc3)CC2)CN(c2ccccc2)C1=O.Cl` (stereo not shown) [Example 133, 2-methyl-4-phenyl-9-(2-(pyridin-4-yl)ethyl)-1-oxa-4,9-diazaspiro[5.5]undecan-3-one hydrochloride], the “μ and σ1 dual binding” value is reported as “++”.

As for `COCC1OC2(CCN(CCc3ccccn3)CC2)CN(c2ccccc2F)C1=O.Cl` (stereo not shown) [Example 134, 4-(2-fluorophenyl)-2-(methoxymethyl)-9-(2-(pyridin-2-yl)ethyl)-1-oxa-4,9-diazaspiro[5.5]undecan-3-one hydrochloride], the “μ and σ1 dual binding” value is on record as “++”.

The compound `COCC1OC2(CCN(CCc3ccccc3F)CC2)CN(c2ccccc2F)C1=O` (stereo not shown) [Example 136, 9-(2-fluorophenethyl)-4-(2-fluorophenyl)-2-(methoxymethyl)-1-oxa-4,9-diazaspiro[5.5]undecan-3-one hydrochloride] had a Ki of less than 500 nM.

As to `COc1ccccc1CCN1CCC2(CC1)CN(c1ccccc1F)C(=O)C(C(C)C)O2` (stereo not shown) [Example 137, 4-(2-fluorophenyl)-2-isopropyl-9-(2-methoxyphenethyl)-1-oxa-4,9-diazaspiro[5.5]undecan-3-one hydrochloride], the Ki was less than 100 nM.

For the compound `COCCC=C1OC2(CCN(CCc3ccccc3)CC2)CN(c2ccccc2F)C1=O` [Example 142, 4-(2-fluorophenyl)-2-(3-methoxypropylidene)-9-phenethyl-1-oxa-4,9-diazaspiro[5.5]undecan-3-one], the Ki is less than 500 nM.

For the compound `Cl.O=C1COC2(CCN(CCc3ccccc3)C2)CN1c1ccccc1` (stereo not shown) [Example 149, 2-phenethyl-9-phenyl-6-oxa-2,9-diazaspiro[4.5]decan-8-one hydrochloride], the “μ and σ1 dual binding” value is on record as “++”.

For `C[C@H]1OC2(CCN(C[C@H](O)c3ccccc3)CC2)CN(c2ccccc2)C1=O` [Example 151a, (R)-9-((R)-2-hydroxy-2-phenylethyl)-2-methyl-4-phenyl-1-oxa-4,9-diazaspiro[5.5]undecan-3-one], the Ki is less than 500 nM.

Consider `C[C@H]1OC2(CCN(C[C@@H](O)c3ccccc3)CC2)CN(c2ccccc2)C1=O` [Example 151b, (R)-9-((S)-2-hydroxy-2-phenylethyl)-2-methyl-4-phenyl-1-oxa-4,9-diazaspiro[5.5]undecan-3-one], for which the Ki is less than 500 nM.

In turn, `C[C@@H]1OC2(CCN(C[C@@H](O)c3ccccc3)CC2)CN(c2ccccc2)C1=O` [Example 151c, (S)-9-((S)-2-hydroxy-2-phenylethyl)-2-methyl-4-phenyl-1-oxa-4,9-diazaspiro[5.5]undecan-3-one] displayed a Ki of less than 500 nM.

`C[C@@H]1OC2(CCN(C[C@H](O)c3ccccc3)CC2)CN(c2ccccc2)C1=O` [Example 151d, (S)-9-((R)-2-hydroxy-2-phenylethyl)-2-methyl-4-phenyl-1-oxa-4,9-diazaspiro[5.5]undecan-3-one] showed a Ki of less than 500 nM.

In turn, `CC1OC2(CCN(CCc3ccccc3)CC2)CN(Cc2cccc(F)c2)C1=O` (stereo not shown) [Example 155, 4-(3-fluorobenzyl)-2-methyl-9-phenethyl-1-oxa-4,9-diazaspiro[5.5]undecan-3-one hydrochloride] came in with a Ki of less than 100 nM.

As to `CC1OC2(CCN(CCc3ccccc3)CC2)CN(Cc2ccccn2)C1=O` (stereo not shown) [Example 157, 2-methyl-9-phenethyl-4-(pyridin-2-ylmethyl)-1-oxa-4,9-diazaspiro[5.5]undecan-3-one hydrochloride], the Ki was less than 100 nM.

`CC1OC2(CCN(CCc3ccccc3)CC2)CN(Cc2cccnc2)C1=O` (stereo not shown) [Example 159, 2-methyl-9-phenethyl-4-(pyridin-3-ylmethyl)-1-oxa-4,9-diazaspiro[5.5]undecan-3-one hydrochloride]: the Ki was less than 100 nM.

The compound `CC1OC2(CCN(CCc3ccccc3)CC2)CN(Cc2nccs2)C1=O` (stereo not shown) [Example 160, 2-methyl-9-phenethyl-4-(thiazol-2-ylmethyl)-1-oxa-4,9-diazaspiro[5.5]undecan-3-one hydrochloride] showed a Ki of less than 100 nM.

In the case of `CC1OC2(CCN(CCc3ccccc3)CC2)CN(CC2CCOCC2)C1=O.Cl` (stereo not shown) [Example 163, 2-methyl-9-phenethyl-4-((tetrahydro-2H-pyran-4-yl)methyl)-1-oxa-4,9-diazaspiro[5.5]undecan-3-one hydrochloride], the “μ and σ1 dual binding” value is “++”.

Still in this test, the particulars now being: combined class from Ki-σ1 (human σ1 receptor, A1) and Ki-μ (human μ-opioid receptor, A2) radioligand binding.
Take `COCC1OC2(CCN(CCc3ccccc3OC)CC2)CN(c2ccccc2F)C1=O` (stereo not shown) [Example 135, 4-(2-fluorophenyl)-2-(methoxymethyl)-9-(2-methoxyphenethyl)-1-oxa-4,9-diazaspiro[5.5]undecan-3-one]: the “μ and σ1 dual binding” value is recorded as “++”.

Regarding `O=C1COC2(CCN(CCc3ccccc3)CC2)CN1Cc1ccncc1` [Example 165, 9-phenethyl-4-(pyridin-4-ylmethyl)-1-oxa-4,9-diazaspiro[5.5]undecan-3-one], the “μ and σ1 dual binding” value is on record as “++”.

Staying with this test, now noted: read-out: μ and σ1 dual binding.
Consider `COc1cccc(CCN2CCC3(CC2)CN(c2ccccc2)C(=O)CO3)c1` [Example 132, 9-(3-methoxyphenethyl)-4-phenyl-1-oxa-4,9-diazaspiro[5.5]undecan-3-one], for which the Ki was less than 500 nM.

`c1ccc(CN2CCOC3(CCN(CCc4ccccn4)CC3)C2)cc1` [Example 138, 4-benzyl-9-(2-(pyridin-2-yl)ethyl)-1-oxa-4,9-diazaspiro[5.5]undecane hydrochloride]: the Ki was less than 100 nM.

For the compound `CC(C)=C1OC2(CCN(CCc3ccccn3)CC2)CN(c2ccccc2F)C1=O` [Example 139], the Ki is greater than 500 nM.

For `CC1OC2(CCN(CCc3csc(NC(=O)OC(C)(C)C)n3)CC2)CN(c2ccccc2F)C1=O` (stereo not shown) [Example 140, tert-butyl (4-(2-(4-(2-fluorophenyl)-2-methyl-3-oxo-1-oxa-4,9-diazaspiro[5.5]undecan-9-yl)ethyl)thiazol-2-yl)carbamate], the Ki is greater than 500 nM.

Turning to `CC(C)=C1OC2(CCN(CCc3scnc3C)CC2)CN(c2ccccc2F)C1=O` [Example 141, 4-(2-fluorophenyl)-9-(2-(4-methylthiazol-5-yl)ethyl)-2-(propan-2-ylidene)-1-oxa-4,9-diazaspiro[5.5]undecan-3-one hydrochloride], the Ki is less than 500 nM.

Consider `CCOC(=O)c1cccc(CCN2CCC3(CC2)CN(c2ccccc2F)C(=O)C(C)O3)c1` (stereo not shown) [Example 143, ethyl 3-(2-(4-(2-fluorophenyl)-2-methyl-3-oxo-1-oxa-4,9-diazaspiro[5.5]undecan-9-yl)ethyl)benzoate], for which the Ki was greater than 500 nM.

In the case of `CC1OC2(CCN(CCC(=O)Nc3ccccc3)CC2)CN(c2ccccc2)C1=O` (stereo not shown) [Example 144, 3-(2-methyl-3-oxo-4-phenyl-1-oxa-4,9-diazaspiro[5.5]undecan-9-yl)-N-phenylpropanamide hydrochloride], the Ki was less than 500 nM.

As for `CC1OC2(CCN(CCOc3cccnc3)CC2)CN(c2ccccc2)C1=O` (stereo not shown) [Example 145, 2-methyl-4-phenyl-9-(2-(pyridin-3-yloxy)ethyl)-1-oxa-4,9-diazaspiro[5.5]undecan-3-one hydrochloride], the Ki was greater than 500 nM.

For `CC1OC2(CCN(CCN3CCCC3=O)CC2)CN(c2ccccc2)C1=O` (stereo not shown) [Example 146, 2-methyl-9-(2-(2-oxopyrrolidin-1-yl)ethyl)-4-phenyl-1-oxa-4,9-diazaspiro[5.5]undecan-3-one], the Ki is greater than 500 nM.

For `CC1OC2(CCN(CCc3cn[nH]c3)CC2)CN(c2ccccc2)C1=O` (stereo not shown) [Example 147, 9-(2-(1H-pyrazol-4-yl)ethyl)-2-methyl-4-phenyl-1-oxa-4,9-diazaspiro[5.5]undecan-3-one], the Ki was greater than 500 nM.

On to `COc1ccc(CN2CC3(CCN(CCc4ccccc4F)CC3)OC3(CC3)C2=O)cc1` [Example 148, 8-(2-fluorophenethyl)-12-(4-methoxybenzyl)-4-oxa-8,12-diazadispiro[2.1.5.3]tridecan-13-one], for which the Ki was greater than 500 nM.

As to `CC1OC2(CCN(CCc3ccccc3)CC2)CN(Cc2ccccc2)C1=O` (stereo not shown) [Example 152, 4-benzyl-2-methyl-9-phenethyl-1-oxa-4,9-diazaspiro[5.5]undecan-3-one hydrochloride], the Ki is less than 100 nM.

On to `O=C1COC2(CCN(CCc3ccccc3)CC2)CN1Cc1ccccc1` [Example 153, 4-benzyl-9-phenethyl-1-oxa-4,9-diazaspiro[5.5]undecan-3-one hydrochloride], for which the Ki was less than 100 nM.

For `CC1OC2(CCN(CCc3ccccc3)CC2)CN(Cc2ccccc2F)C1=O` (stereo not shown) [Example 154, 4-(2-fluorobenzyl)-2-methyl-9-phenethyl-1-oxa-4,9-diazaspiro[5.5]undecan-3-one hydrochloride], the Ki was less than 100 nM.

As for `CC1OC2(CCN(CCc3ccccc3)CC2)CN(Cc2ccc(F)cc2)C1=O` (stereo not shown) [Example 158, 4-(4-fluorobenzyl)-2-methyl-9-phenethyl-1-oxa-4,9-diazaspiro[5.5]undecan-3-one hydrochloride], the Ki is less than 100 nM.

For the compound `CC1OC2(CCN(CCc3ccccc3)CC2)CN(Cc2cncs2)C1=O` (stereo not shown) [Example 161, 2-methyl-9-phenethyl-4-(thiazol-5-ylmethyl)-1-oxa-4,9-diazaspiro[5.5]undecan-3-one hydrochloride], the Ki was less than 500 nM.

On to `CC1OC2(CCN(CCc3ccccc3)CC2)CN(Cc2ccncc2)C1=O` (stereo not shown) [Example 162, 2-methyl-9-phenethyl-4-(pyridin-4-ylmethyl)-1-oxa-4,9-diazaspiro[5.5]undecan-3-one], for which the Ki was less than 500 nM.

`CC1OC2(CCN(CCc3ccccc3)CC2)CN(Cc2cscn2)C1=O` (stereo not shown) [Example 164, 2-methyl-9-phenethyl-4-(thiazol-4-ylmethyl)-1-oxa-4,9-diazaspiro[5.5]undecan-3-one]: the Ki was less than 100 nM.

As to `COc1cccc(CN2CC3(CCN(CCc4ccccc4)CC3)OCC2=O)c1` [Example 166, 4-(3-methoxybenzyl)-9-phenethyl-1-oxa-4,9-diazaspiro[5.5]undecan-3-one hydrochloride], the Ki is less than 500 nM.

Consider `O=C1COC2(CCN(CCc3ccccc3)CC2)CN1Cc1cscn1` [Example 167, 9-phenethyl-4-(thiazol-4-ylmethyl)-1-oxa-4,9-diazaspiro[5.5]undecan-3-one hydrochloride], for which the Ki was less than 100 nM.
